# According to patent US8986994B2, “Substituted pyridines and pyrimidines” (Technische Universitaet Wien, priority 2009, dated 2015):
# Like-named read-outs stand apart in the source and are kept apart here.
# Key:
# ANF (P19 cells) = experiment: ANF promoter luciferase reporter assay in P19 cells; format: cell-based, mouse; conditions: Mus musculus, read-out: ANF activity
# Nkx2.5 (P19 cells) = experiment: Nkx2.5 luciferase reporter assay in P19 cells; format: cell-based; conditions: Mus musculus, read-out: Nkx2.5 activity
# ANF (C2C12 cells) = experiment: ANF promoter luciferase reporter assay in C2C12 cells; format: cell-based, mouse; conditions: C2C12 cells, 1 μM for 8 days; for fold induction at 1 µM: Mus musculus, 192 h, luciferase signal vs control (untreated cells), read-out: ANF activity
# TOPflash (C2C12 cells) = experiment: TOPflash luciferase reporter assay in C2C12 cells; format: cell-based; conditions: Mus musculus, 192 h; C2C12 cells, 1 μM for 8 days, luciferase signal vs control (untreated cells); read-out: TOPflash activity
# Nkx2.5 (C2C12 cells) = experiment: Nkx2.5 luciferase reporter assay in C2C12 cells; format: cell-based; conditions: Mus musculus, 192 h; C2C12 cells, 1 μM for 8 days, luciferase signal vs control (untreated cells); read-out: Nkx2.5 activity
# TOPflash (P19 cells) = experiment: TOPflash luciferase reporter assay in P19 cells; format: cell-based; conditions: Mus musculus, 192 h; P19 cells, 1 μM for 8 days, luciferase signal vs control (untreated cells); read-out: TOPflash activity
# [1] = 192 h, P19 cells, 1 μM for 8 days, luciferase signal vs control (untreated cells)
SMILES,fold induction at 1 µM (ANF (P19 cells); [1]),fold induction at 1 µM (Nkx2.5 (P19 cells); [1]),"fold induction at 1 µM (ANF (P19 cells); P19, 192 h)",further results
"OCCNc1cc(Nc2ccccc2)ncn1 [example 23, 2-(6-(Phenylamino)pyrimidin-4-ylamino)ethan-1-ol]",< 1.3,< 1.3,–,–
"OCCNc1cc(Nc2ccc(Cl)cc2)ncn1 [example 24, 2-(6-(4-Chlorophenylamino)pyrimidin-4-ylamino)ethan-1-ol]",1.3 to 2,1.3 to 2,–,melting point: 183 °C
"OCCNc1cc(Nc2cccc(Cl)c2)ncn1 [example 25, 2-(6-(3-Chlorophenylamino)pyrimidin-4-ylamino)ethan-1-ol]",> 2,1.3 to 2,–,–
"Clc1cccc(Nc2cc(NC3CCCCC3)ncn2)c1 [example 26, N^4-(3-Chlorophenyl)-N^6-cyclohexylpyrimidine-4,6-diamine]",–,–,> 2,"fold induction at 1 µM (Nkx2.5 (P19 cells); P19, 192 h): > 2"
"COCCNc1cc(Nc2cccc(Cl)c2)ncn1 [example 27, N^4-(3-Chlorophenyl)-N^6-(2-methoxyethyl)pyrimidine-4,6-diamine]",–,–,< 1.3,"fold induction at 1 µM (Nkx2.5 (P19 cells); P19, 192 h): < 1.3"
"O=[N+]([O-])c1ccc(Nc2cc(NCCO)ncn2)cc1 [example 30, 2-(6-(4-Nitrophenylamino)pyrimidin-4-ylamino)ethan-1-ol]",< 1.3,< 1.3,–,–
"OCCCNc1cc(Nc2cccc(Cl)c2)ncn1 [example 31, 3-(6-(3-Chlorophenylamino)pyrimidin-4-ylamino)propan-1-ol]",–,–,1.3 to 2,"fold induction at 1 µM (Nkx2.5 (P19 cells); P19, 192 h): 1.3 to 2"
"OCCNc1cc(Nc2cccc(F)c2)ncn1 [example 32, 2-(6-(3-Fluorophenylamino)pyrimidin-4-ylamino)ethan-1-ol]",< 1.3,< 1.3,–,–
"OCCNc1cc(Nc2cccc(Br)c2)ncn1 [example 33, 2-(6-(3-Bromophenylamino)pyrimidin-4-ylamino)ethan-1-ol]",< 1.3,1.3 to 2,–,–
"CCOC(=O)c1ccc(Nc2cc(NCCO)ncn2)cc1 [example 34, Ethyl 4-(6-(2-hydroxyethylamino)pyrimidin-4-ylamino)benzoate]",< 1.3,< 1.3,–,–
"COc1cccc(Nc2cc(NC3CCCCC3)ncn2)c1 [example 37, N^4-Cyclohexyl-N^6-(3-methoxyphenyl)pyrimidine-4,6-diamine]",–,–,1.3 to 2,"fold induction at 1 µM (Nkx2.5 (P19 cells); P19, 192 h): > 2"
"COc1ccc(N(C)c2cc(NCCO)ncn2)cc1 [example 38, 2-(6-((4-Methoxyphenyl)(methyl)amino)pyrimidin-4-ylamino)ethan-1-ol]",> 2,–,–,–
"OCCNc1cc(NC2CCCCC2)ncn1 [example 39, 2-(6-(Cyclohexylamino)pyrimidin-4-ylamino)ethan-1-ol]",–,–,< 1.3,–
"COc1ccc(Nc2cccc(NCCCO)n2)cc1 [example 43, 3-(6-(4-Methoxyphenylamino)pyridin-2-ylamino)propan-1-ol]",1.3 to 2,< 1.3,–,"luciferase signal in all three reporter assays (ANF (C2C12 cells); ANF, TOPflash and Nkx2.5 reporter assays together): increase in the luciferase signal in all three reporter assays; fold induction at 1 µM (ANF (C2C12 cells)): 1.3 to 2; fold induction at 1 µM (TOPflash (C2C12 cells)): 1.3 to 2; fold induction at 1 µM (Nkx2.5 (C2C12 cells)): 1.3 to 2; fold induction at 1 µM (TOPflash (P19 cells)): 1.3 to 2"
"OCCNc1cccc(Nc2ccc(Oc3ccccc3)cc2)n1 [example 44, 2-(6-(4-Phenoxyphenylamino)pyridin-2-ylamino)ethan-1-ol]",1.3 to 2,< 1.3,–,fold induction at 1 µM (ANF (C2C12 cells)): < 1.3; fold induction at 1 µM (TOPflash (C2C12 cells)): < 1.3; fold induction at 1 µM (Nkx2.5 (C2C12 cells)): 1.3 to 2; fold induction at 1 µM (TOPflash (P19 cells)): < 1.3
"OCCCNc1cccc(Nc2ccc(Oc3ccccc3)cc2)n1 [example 45, 3-(6-(4-Phenoxyphenylamino)pyridin-2-ylamino)propan-1-ol]",< 1.3,< 1.3,–,fold induction at 1 µM (ANF (C2C12 cells)): < 1.3; fold induction at 1 µM (TOPflash (C2C12 cells)): 1.3 to 2; fold induction at 1 µM (Nkx2.5 (C2C12 cells)): < 1.3; fold induction at 1 µM (TOPflash (P19 cells)): < 1.3
